Laboratory results as given in publication PMC9684079, “Pharmacological targeting of glutamatergic neurons within the brainstem for weight reduction” (Nature Metabolism, 2022).

Legend:
Hcrtr2 = molecular target: T1, Hcrtr2 (Homo sapiens, UniProt O43614); assay: radioligand displacement of [3H]EMPA (weak; functional IC50 […]); format: binding
T1 construct: membranes from CHO-K1 cells stably expressing HCRTR2

Adrenergic β1 = molecular target: T2, Adrenergic β1 (Homo sapiens, UniProt P08588); assay: biochemical; set-up: Cerep/Eurofins selectivity panel, receptors, channels and transporters, per cent inhibition at 10 uM; settings: read-out: % Inhibition
T2 construct: gene ADRB1

[1] = molecular target: T3, Transporter, Norepinephrine (NET) (Homo sapiens, UniProt P23975); assay: biochemical; set-up: Cerep/Eurofins selectivity panel, receptors, channels and transporters, per cent inhibition at 10 uM; settings: read-out: % Inhibition
T3 construct: gene SLC6A2

Adrenergic β2 = molecular target: T4, Adrenergic β2 (Homo sapiens, UniProt P07550); assay: biochemical; set-up: Cerep/Eurofins selectivity panel, receptors, channels and transporters, per cent inhibition at 10 uM; settings: read-out: % Inhibition
T4 construct: gene ADRB2

[2] = molecular target: T5, Serotonin (5-Hydroxytryptamine) 5-HT2B (Homo sapiens, UniProt P41595); assay: biochemical; set-up: Cerep/Eurofins selectivity panel, receptors, channels and transporters, per cent inhibition at 10 uM; settings: read-out: % Inhibition
T5 construct: gene HTR2B

AdenosineA2B = molecular target: T6, AdenosineA2B (Homo sapiens, UniProt P29275); assay: biochemical; set-up: Cerep/Eurofins selectivity panel, receptors, channels and transporters, per cent inhibition at 10 uM; settings: read-out: % Inhibition
T6 construct: gene ADORA2B

Dopamine D1 = molecular target: T7, Dopamine D1 (Homo sapiens, UniProt P21728); assay: biochemical; set-up: Cerep/Eurofins selectivity panel, receptors, channels and transporters, per cent inhibition at 10 uM; settings: read-out: % Inhibition
T7 construct: gene DRD1

[3] = molecular target: T8, Transporter, Serotonin (SERT) (Homo sapiens, UniProt P31645); assay: biochemical; set-up: Cerep/Eurofins selectivity panel, receptors, channels and transporters, per cent inhibition at 10 uM; settings: read-out: % Inhibition
T8 construct: gene SLC6A4

Cannabinoid CB1 = molecular target: T9, Cannabinoid CB1 (Homo sapiens, UniProt P21554); assay: biochemical; set-up: Cerep/Eurofins selectivity panel, receptors, channels and transporters, per cent inhibition at 10 uM; settings: read-out: % Inhibition
T9 construct: gene CNR1

Dopamine D2L = molecular target: T10, Dopamine D2L (Homo sapiens, UniProt P14416); assay: biochemical; set-up: Cerep/Eurofins selectivity panel, receptors, channels and transporters, per cent inhibition at 10 uM; settings: read-out: % Inhibition
T10 construct: gene DRD2; long isoform D2L

Muscarinic M3 = molecular target: T11, Muscarinic M3 (Homo sapiens, UniProt P20309); assay: biochemical; set-up: Cerep/Eurofins selectivity panel, receptors, channels and transporters, per cent inhibition at 10 uM; settings: read-out: % Inhibition
T11 construct: gene CHRM3

Vasopressin V1b = molecular target: T12, Vasopressin V1b (Homo sapiens, UniProt P47901); assay: biochemical; set-up: Cerep/Eurofins selectivity panel, receptors, channels and transporters, per cent inhibition at 10 uM; settings: read-out: % Inhibition
T12 construct: gene AVPR1B

Adenosine A3 = molecular target: T13, Adenosine A3 (Homo sapiens, UniProt P0DMS8); assay: biochemical; set-up: Cerep/Eurofins selectivity panel, receptors, channels and transporters, per cent inhibition at 10 uM; settings: read-out: % Inhibition
T13 construct: gene ADORA3

Muscarinic M2 = molecular target: T14, Muscarinic M2 (Homo sapiens, UniProt P08172); assay: biochemical; set-up: Cerep/Eurofins selectivity panel, receptors, channels and transporters, per cent inhibition at 10 uM; settings: read-out: % Inhibition
T14 construct: gene CHRM2

APJ = molecular target: T15, APJ (Homo sapiens, UniProt P35414); assay: biochemical; set-up: Cerep/Eurofins selectivity panel, receptors, channels and transporters, per cent inhibition at 10 uM; settings: read-out: % Inhibition
T15 construct: gene APLNR

Muscarinic M1 = molecular target: T16, Muscarinic M1 (Homo sapiens, UniProt P11229); assay: biochemical; set-up: Cerep/Eurofins selectivity panel, receptors, channels and transporters, per cent inhibition at 10 uM; settings: read-out: % Inhibition
T16 construct: gene CHRM1

Adrenergic β3 = molecular target: T17, Adrenergic β3 (Homo sapiens, UniProt P13945); assay: biochemical; set-up: Cerep/Eurofins selectivity panel, receptors, channels and transporters, per cent inhibition at 10 uM; settings: read-out: % Inhibition
T17 construct: gene ADRB3

Tachykinin NK3 = molecular target: T18, Tachykinin NK3 (Homo sapiens, UniProt P29371); assay: biochemical; set-up: Cerep/Eurofins selectivity panel, receptors, channels and transporters, per cent inhibition at 10 uM; settings: read-out: % Inhibition
T18 construct: gene TACR3

Adenosine A2A = molecular target: T19, Adenosine A2A (Homo sapiens, UniProt P29274); assay: biochemical; set-up: Cerep/Eurofins selectivity panel, receptors, channels and transporters, per cent inhibition at 10 uM; settings: read-out: % Inhibition
T19 construct: gene ADORA2A

GABAB1B = molecular target: T20, GABAB1B (Homo sapiens, UniProt Q9UBS5); assay: biochemical; set-up: Cerep/Eurofins selectivity panel, receptors, channels and transporters, per cent inhibition at 10 uM; settings: read-out: % Inhibition
T20 construct: gene GABBR1; isoform 1B

Tachykinin NK2 = molecular target: T21, Tachykinin NK2 (Homo sapiens, UniProt P21452); assay: biochemical; set-up: Cerep/Eurofins selectivity panel, receptors, channels and transporters, per cent inhibition at 10 uM; settings: read-out: % Inhibition
T21 construct: gene TACR2

Estrogen ERβ = molecular target: T22, Estrogen ERβ (Homo sapiens, UniProt Q92731); assay: biochemical; set-up: Cerep/Eurofins selectivity panel, receptors, channels and transporters, per cent inhibition at 10 uM; settings: read-out: % Inhibition
T22 construct: gene ESR2

Adenosine A1 = molecular target: T23, Adenosine A1 (Homo sapiens, UniProt P30542); assay: biochemical; set-up: Cerep/Eurofins selectivity panel, receptors, channels and transporters, per cent inhibition at 10 uM; settings: read-out: % Inhibition
T23 construct: gene ADORA1

Opiate μ(OP3, MOP) = molecular target: T24, Opiate μ(OP3, MOP) (Homo sapiens, UniProt P35372); assay: biochemical; set-up: Cerep/Eurofins selectivity panel, receptors, channels and transporters, per cent inhibition at 10 uM; settings: read-out: % Inhibition
T24 construct: gene OPRM1

[4] = molecular target: T25, Protein Serine/Threonine Kinase, IKK-1 (Homo sapiens, UniProt O15111); assay: biochemical; set-up: Cerep/Eurofins selectivity panel, enzymes, per cent inhibition at 10 uM; settings: read-out: % Inhibition
T25 construct: gene CHUK

T10 sequence (P14416 whole entry, canonical isoform): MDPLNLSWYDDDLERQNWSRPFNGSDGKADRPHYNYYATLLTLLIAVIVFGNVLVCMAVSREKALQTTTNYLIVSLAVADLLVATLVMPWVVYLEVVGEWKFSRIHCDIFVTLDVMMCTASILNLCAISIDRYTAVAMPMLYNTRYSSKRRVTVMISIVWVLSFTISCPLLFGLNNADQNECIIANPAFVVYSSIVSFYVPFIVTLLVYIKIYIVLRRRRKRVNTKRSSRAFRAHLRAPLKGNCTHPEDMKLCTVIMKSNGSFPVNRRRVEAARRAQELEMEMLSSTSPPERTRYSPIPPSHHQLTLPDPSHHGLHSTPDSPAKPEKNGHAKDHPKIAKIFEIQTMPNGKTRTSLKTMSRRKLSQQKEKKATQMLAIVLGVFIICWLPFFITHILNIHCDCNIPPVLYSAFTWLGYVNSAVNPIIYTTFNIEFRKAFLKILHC
T21 sequence (P21452 whole entry): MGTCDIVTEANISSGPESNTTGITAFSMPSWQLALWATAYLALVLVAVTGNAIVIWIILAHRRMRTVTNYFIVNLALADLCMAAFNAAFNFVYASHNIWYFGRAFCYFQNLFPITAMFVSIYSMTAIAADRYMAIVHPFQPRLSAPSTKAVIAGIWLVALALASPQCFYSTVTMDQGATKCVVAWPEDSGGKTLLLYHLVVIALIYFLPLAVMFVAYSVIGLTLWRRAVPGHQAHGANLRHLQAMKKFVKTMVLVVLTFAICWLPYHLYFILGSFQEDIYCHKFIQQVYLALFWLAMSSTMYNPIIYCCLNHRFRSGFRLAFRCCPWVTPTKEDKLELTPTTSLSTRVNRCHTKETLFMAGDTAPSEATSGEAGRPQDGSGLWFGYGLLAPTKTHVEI
T9 sequence (P21554 whole entry): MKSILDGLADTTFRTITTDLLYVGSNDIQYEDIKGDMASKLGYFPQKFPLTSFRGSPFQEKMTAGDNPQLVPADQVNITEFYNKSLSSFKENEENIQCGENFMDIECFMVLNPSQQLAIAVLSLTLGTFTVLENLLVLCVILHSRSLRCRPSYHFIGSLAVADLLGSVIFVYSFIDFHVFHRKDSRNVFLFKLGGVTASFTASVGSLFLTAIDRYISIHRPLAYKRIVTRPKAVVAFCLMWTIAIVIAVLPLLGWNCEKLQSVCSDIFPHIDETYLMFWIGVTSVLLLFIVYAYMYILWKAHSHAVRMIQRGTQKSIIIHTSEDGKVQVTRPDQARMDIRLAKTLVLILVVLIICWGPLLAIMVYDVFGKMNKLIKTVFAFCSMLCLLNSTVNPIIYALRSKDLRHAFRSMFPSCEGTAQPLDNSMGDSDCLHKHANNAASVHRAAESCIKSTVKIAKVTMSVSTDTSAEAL
T13 sequence (P0DMS8 whole entry): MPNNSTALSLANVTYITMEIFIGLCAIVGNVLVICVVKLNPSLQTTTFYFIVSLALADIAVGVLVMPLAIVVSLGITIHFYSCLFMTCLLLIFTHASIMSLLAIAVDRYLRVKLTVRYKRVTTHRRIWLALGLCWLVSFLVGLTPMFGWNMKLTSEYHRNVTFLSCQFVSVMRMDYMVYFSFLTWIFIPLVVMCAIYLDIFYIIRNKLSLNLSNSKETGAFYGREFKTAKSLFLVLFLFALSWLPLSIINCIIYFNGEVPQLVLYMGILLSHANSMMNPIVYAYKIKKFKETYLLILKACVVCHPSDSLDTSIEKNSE
T2 sequence (P08588 whole entry): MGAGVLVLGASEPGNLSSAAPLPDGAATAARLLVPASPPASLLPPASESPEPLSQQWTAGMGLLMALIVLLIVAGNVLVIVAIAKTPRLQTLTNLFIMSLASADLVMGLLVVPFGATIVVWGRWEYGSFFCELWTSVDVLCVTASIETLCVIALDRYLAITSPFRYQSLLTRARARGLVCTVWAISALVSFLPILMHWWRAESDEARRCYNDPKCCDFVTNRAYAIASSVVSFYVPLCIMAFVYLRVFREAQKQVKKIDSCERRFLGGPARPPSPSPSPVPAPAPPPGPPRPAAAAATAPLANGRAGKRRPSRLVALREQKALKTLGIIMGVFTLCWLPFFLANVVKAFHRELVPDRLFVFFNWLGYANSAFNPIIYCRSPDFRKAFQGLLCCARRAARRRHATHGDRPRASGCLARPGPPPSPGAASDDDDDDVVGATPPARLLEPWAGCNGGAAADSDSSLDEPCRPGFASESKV
T16 sequence (P11229 whole entry): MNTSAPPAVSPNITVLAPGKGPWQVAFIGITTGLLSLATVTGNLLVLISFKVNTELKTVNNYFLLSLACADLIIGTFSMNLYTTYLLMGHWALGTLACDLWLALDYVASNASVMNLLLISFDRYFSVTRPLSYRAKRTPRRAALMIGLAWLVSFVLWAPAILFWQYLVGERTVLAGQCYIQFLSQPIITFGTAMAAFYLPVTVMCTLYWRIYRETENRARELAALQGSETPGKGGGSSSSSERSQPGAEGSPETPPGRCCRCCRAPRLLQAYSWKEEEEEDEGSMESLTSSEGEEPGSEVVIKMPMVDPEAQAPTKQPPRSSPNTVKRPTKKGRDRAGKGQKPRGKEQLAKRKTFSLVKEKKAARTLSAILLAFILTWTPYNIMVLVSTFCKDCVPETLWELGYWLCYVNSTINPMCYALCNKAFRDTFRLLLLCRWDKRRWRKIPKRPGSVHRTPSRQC
T19 sequence (P29274 whole entry): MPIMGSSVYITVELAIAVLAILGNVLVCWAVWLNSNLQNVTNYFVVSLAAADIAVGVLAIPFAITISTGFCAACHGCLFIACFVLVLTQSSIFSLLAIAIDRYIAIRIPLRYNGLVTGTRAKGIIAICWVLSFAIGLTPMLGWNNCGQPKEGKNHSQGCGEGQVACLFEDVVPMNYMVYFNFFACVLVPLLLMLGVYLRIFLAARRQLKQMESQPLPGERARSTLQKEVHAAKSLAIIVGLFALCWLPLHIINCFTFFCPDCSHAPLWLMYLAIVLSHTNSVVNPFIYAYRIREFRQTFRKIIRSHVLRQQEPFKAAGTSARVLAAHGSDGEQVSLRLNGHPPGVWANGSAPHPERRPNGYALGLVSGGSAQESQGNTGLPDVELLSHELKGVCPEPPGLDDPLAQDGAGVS
T4 sequence (P07550 whole entry): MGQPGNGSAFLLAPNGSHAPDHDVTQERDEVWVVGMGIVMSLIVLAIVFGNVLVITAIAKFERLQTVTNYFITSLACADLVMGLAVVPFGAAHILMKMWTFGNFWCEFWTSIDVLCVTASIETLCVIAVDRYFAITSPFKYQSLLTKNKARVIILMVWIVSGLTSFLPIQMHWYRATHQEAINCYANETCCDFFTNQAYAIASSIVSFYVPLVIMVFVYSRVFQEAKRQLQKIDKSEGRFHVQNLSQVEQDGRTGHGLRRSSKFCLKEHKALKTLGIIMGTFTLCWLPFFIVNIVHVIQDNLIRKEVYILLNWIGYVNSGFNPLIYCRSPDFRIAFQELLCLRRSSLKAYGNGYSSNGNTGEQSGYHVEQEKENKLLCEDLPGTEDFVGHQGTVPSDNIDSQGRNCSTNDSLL
T24 sequence (P35372 whole entry): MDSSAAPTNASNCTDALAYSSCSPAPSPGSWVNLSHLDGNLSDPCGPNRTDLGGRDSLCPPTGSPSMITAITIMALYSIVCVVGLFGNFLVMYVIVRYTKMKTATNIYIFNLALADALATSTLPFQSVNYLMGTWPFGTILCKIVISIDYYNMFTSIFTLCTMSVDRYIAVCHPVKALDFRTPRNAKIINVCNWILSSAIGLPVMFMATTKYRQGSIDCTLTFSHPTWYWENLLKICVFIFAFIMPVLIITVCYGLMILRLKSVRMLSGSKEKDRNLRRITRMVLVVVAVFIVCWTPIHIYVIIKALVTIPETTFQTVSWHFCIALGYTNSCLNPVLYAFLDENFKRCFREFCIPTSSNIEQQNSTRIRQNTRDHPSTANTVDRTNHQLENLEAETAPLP
T12 sequence (P47901 whole entry): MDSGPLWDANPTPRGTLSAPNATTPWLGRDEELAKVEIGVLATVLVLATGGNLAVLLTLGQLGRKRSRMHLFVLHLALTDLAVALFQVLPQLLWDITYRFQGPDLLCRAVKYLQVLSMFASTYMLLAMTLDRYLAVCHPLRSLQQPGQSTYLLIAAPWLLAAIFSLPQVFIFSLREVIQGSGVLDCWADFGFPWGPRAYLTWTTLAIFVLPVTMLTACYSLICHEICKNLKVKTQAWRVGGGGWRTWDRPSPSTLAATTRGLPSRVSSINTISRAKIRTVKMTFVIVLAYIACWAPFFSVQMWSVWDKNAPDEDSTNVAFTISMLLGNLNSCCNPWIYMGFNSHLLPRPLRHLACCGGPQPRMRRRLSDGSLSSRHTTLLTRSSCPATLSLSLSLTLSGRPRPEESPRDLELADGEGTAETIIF
T15 sequence (P35414 whole entry): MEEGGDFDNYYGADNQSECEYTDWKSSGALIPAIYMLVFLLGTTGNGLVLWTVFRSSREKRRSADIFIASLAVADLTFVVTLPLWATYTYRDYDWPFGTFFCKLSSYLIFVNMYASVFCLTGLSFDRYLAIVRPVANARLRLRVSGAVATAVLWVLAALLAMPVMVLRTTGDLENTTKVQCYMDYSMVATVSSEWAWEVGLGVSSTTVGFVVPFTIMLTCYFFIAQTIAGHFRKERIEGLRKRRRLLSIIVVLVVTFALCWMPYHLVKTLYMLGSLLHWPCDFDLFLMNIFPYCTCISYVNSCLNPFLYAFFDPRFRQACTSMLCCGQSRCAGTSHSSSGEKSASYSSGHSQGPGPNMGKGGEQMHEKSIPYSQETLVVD
T6 sequence (P29275 whole entry): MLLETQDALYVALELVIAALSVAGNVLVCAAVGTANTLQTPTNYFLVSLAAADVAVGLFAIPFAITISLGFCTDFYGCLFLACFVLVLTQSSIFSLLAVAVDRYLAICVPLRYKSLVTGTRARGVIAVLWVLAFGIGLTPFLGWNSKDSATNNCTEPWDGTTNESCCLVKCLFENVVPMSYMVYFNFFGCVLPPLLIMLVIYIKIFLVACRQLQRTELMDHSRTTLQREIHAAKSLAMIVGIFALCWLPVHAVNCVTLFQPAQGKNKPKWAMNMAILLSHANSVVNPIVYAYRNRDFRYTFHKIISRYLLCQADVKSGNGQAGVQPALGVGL

## C[C@]1(Nc2cnc(C(F)(F)F)cn2)CCC[C@@H]1NC(=O)c1ncccc1-n1nccn1 [CVN45502]
Hcrtr2
  Ki: 4.66 pKi
Adrenergic β1
  inhibition at 10 µM: -14%
[1]
  inhibition at 10 µM: -6%
Adrenergic β2
  inhibition at 10 µM: 0%
[2]
  inhibition at 10 µM: 4%
AdenosineA2B
  inhibition at 10 µM: -7%
Dopamine D1
  inhibition at 10 µM: 2%
[3]
  inhibition at 10 µM: 7%
Cannabinoid CB1
  inhibition at 10 µM: 8%
Dopamine D2L
  inhibition at 10 µM: 7%
Muscarinic M3
  inhibition at 10 µM: -1%
Vasopressin V1b
  inhibition at 10 µM: -8%
Adenosine A3
  inhibition at 10 µM: -2%
Muscarinic M2
  inhibition at 10 µM: -7%
APJ
  inhibition at 10 µM: -4%
Muscarinic M1
  inhibition at 10 µM: -1%
Adrenergic β3
  inhibition at 10 µM: 0%
Tachykinin NK3
  inhibition at 10 µM: 27%
Adenosine A2A
  inhibition at 10 µM: 2%
GABAB1B
  inhibition at 10 µM: -1%
Tachykinin NK2
  inhibition at 10 µM: -8%
Estrogen ERβ
  inhibition at 10 µM: 4%
Adenosine A1
  inhibition at 10 µM: 7%
Opiate μ(OP3, MOP)
  inhibition at 10 µM: -3%
[4]
  inhibition at 10 µM: -14%
